Assay [1] has as its target Epidermal growth factor receptor (EGFR)(L858R)(T790M) (Homo sapiens, UniProt P00533, L858R/T790M). As to the kind of experiment: Inhibitory Activity for EGFR (L858R/T790M) Kinase. The protocol:
(§1) A 50 ng/μL EGFR (L858R/T790M, Carna) stock solution was diluted with a kinase buffer (50 mM HEPES, 10 mM MgCl2, 2 mM DTT, 1 mM EGTA, 0.01% Tween 20), and 6 μL of 1.67× working solution at 0.004175 ng/μL (final concentration: 0.0025 ng/μL) was added to each well. Different compounds dissolved in DMSO were added to wells using a nanoliter pipettor, resulting in the final concentrations of the compounds of 10 nM to 0.0024 nM (4-fold gradient, 7 concentrations in total), and blank control wells (without enzyme) and negative control wells (with enzyme, plus vehicle DMSO) were set, 2 replicate wells for each concentration. After enzyme was reacted with the compound or vehicle for 30 min, 5×ATP at 25 μM (final concentration: 5 μM, Sigma) prepared with a kinase buffer was mixed with 5× substrate at 0.5 μM (final concentration: 0.1 μM, ULight-poly GT, PerkinElmer) at a ratio of 1:1 (v:v), and the mixture was added to each well at 4 μL/well. After being sealed with a film, the plate was incubated at room temperature for 2 h, and then 5 μL of 4×EDTA at 40 mM (final concentration: 10 mM) was added to each well. After the plate was incubated for 5 min at room temperature, 5 μL of 4× detection reagent at 8 nM (final concentration: 2 nM, Eu-anti-phospho-tyrosine antibody, PerkinElmer) was added to each well. After being incubated at room temperature for 1 h, the plate was read using a PerkinElmer Envision multi-mode microplate reader (excitation: 320 nm, emission: 665 nm), and IC50 was calculated by four-parameter fitting.

The target in assay [2] is Epidermal growth factor receptor [T790M,C797S,L858R] (UniProt P00533, C797S/L858R/T790M). As to the kind of experiment: Inhibitory Activity for EGFR (L858R/T790M/C797S) Kinase. The procedure: as §1, with “(L858R/T790M/C797S, BPS)” for “(L858R/T790M, Carna)”, “0.00167” for “0.004175”, “0.001” for “0.0025”
Sequence of Epidermal growth factor receptor [T790M,C797S,L858R] (P00533 25-1210 T790M/C797S/L858R limits assumed): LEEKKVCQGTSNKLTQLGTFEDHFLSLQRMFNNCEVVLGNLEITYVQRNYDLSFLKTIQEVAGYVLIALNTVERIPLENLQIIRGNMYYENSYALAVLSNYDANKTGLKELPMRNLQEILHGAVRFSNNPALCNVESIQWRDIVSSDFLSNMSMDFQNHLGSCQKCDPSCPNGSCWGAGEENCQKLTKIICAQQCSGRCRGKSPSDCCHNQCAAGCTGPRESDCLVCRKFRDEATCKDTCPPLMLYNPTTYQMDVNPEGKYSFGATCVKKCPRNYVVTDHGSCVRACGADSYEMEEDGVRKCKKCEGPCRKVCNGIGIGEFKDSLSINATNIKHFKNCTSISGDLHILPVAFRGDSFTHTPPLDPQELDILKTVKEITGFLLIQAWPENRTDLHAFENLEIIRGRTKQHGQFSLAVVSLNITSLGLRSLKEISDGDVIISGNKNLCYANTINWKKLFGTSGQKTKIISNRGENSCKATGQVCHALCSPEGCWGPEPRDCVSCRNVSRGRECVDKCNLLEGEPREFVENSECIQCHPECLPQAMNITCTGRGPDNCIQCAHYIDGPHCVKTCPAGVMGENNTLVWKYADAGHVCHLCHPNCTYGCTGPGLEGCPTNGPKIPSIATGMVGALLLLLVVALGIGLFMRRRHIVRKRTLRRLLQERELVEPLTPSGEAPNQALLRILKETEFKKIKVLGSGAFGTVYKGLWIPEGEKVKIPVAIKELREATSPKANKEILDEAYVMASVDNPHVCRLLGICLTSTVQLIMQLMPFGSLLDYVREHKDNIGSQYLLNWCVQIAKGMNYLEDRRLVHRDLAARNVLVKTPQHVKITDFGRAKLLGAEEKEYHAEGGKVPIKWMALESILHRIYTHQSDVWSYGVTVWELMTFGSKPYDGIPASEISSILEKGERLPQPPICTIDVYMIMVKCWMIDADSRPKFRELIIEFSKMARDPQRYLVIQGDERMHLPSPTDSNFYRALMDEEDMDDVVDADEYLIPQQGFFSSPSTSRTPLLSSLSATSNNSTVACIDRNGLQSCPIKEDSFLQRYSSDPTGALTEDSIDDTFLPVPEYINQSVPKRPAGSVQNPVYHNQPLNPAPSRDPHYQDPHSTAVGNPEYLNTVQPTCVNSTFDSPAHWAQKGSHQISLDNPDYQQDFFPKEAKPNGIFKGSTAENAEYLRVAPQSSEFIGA
Assay [3] addresses Epidermal growth factor receptor (Homo sapiens, UniProt P00533). As to the kind of experiment: Inhibitory Activity for EGFR (WT) Kinase. The protocol:
A 50 ng/μL EGFR (WT, Carna) stock solution was diluted with a kinase buffer (50 mM HEPES, 10 mM MgCl2, 2 mM DTT, 1 mM EGTA, 0.01% Tween 20), and 6 μL of 1.67× working solution at 0.005 ng/μL (final concentration: 0.003 ng/μL) was added to each well. Different compounds dissolved in DMSO were added to the wells using a nanoliter pipettor, resulting in the final concentrations of the compounds of 100 nM to 0.0244 nM (4-fold gradient for 7 concentrations in total), and blank control wells (without enzyme) and negative control wells (with enzyme, plus vehicle DMSO) were set, 2 replicate wells for each concentration. After enzyme was reacted with the compound or vehicle for 30 min, 5×ATP at 25 μM (final concentration: 5 μM, Sigma) prepared with a kinase buffer was mixed with 5× substrate at 0.5 μM (final concentration: 0.1 μM, ULight-poly GT, PerkinElmer) at a ratio of 1:1 (v:v), and the mixture was added to each well at 4 μL/well. After being sealed with a film, the plate was incubated at room temperature for 2 h, and then 5 μL of 4×EDTA at 40 mM (final concentration: 10 mM) was added to each well. After the plate was incubated for 5 min at room temperature, 5 μL of 4× detection reagent at 8 nM (final concentration: 2 nM, Eu-anti-phospho-tyrosine antibody, PerkinElmer) was added to each well.

One may read the IC50 as the point on the concentration scale where inhibition reaches its midpoint. Read a high IC50 as weaker potency.

Sequence of Epidermal growth factor receptor (EGFR)(L858R)(T790M) (P00533 25-1210 T790M/L858R limits assumed): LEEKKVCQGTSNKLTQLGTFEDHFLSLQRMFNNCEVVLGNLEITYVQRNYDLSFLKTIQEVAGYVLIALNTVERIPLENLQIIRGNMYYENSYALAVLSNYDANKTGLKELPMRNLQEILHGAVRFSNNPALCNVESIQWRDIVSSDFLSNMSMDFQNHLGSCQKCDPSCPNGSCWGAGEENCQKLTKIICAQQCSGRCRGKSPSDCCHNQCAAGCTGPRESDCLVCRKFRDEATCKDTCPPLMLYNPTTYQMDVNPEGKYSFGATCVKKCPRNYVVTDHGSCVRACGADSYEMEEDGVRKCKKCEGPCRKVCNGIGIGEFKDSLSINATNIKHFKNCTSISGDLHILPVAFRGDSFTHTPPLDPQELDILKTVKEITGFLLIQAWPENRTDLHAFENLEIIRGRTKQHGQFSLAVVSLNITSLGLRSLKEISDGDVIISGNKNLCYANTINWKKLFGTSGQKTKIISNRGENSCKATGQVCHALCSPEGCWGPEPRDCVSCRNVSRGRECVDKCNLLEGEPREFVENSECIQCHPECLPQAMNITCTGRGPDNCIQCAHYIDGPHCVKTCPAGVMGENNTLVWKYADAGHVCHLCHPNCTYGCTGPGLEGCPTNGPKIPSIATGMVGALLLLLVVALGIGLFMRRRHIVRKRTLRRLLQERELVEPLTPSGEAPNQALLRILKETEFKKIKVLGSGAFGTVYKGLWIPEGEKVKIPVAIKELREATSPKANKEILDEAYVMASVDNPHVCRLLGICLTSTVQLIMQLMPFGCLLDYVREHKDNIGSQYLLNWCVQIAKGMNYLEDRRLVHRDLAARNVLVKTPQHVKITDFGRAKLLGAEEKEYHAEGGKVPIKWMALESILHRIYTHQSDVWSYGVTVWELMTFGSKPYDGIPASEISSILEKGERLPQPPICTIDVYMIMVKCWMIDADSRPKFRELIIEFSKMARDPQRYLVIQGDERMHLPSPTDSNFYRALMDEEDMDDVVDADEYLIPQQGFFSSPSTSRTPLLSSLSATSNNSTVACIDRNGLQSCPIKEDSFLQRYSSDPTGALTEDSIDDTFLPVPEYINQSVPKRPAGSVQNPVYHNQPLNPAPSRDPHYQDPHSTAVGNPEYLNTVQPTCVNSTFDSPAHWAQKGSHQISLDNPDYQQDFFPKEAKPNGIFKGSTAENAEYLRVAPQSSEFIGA
Sequence of Epidermal growth factor receptor (P00533 whole entry): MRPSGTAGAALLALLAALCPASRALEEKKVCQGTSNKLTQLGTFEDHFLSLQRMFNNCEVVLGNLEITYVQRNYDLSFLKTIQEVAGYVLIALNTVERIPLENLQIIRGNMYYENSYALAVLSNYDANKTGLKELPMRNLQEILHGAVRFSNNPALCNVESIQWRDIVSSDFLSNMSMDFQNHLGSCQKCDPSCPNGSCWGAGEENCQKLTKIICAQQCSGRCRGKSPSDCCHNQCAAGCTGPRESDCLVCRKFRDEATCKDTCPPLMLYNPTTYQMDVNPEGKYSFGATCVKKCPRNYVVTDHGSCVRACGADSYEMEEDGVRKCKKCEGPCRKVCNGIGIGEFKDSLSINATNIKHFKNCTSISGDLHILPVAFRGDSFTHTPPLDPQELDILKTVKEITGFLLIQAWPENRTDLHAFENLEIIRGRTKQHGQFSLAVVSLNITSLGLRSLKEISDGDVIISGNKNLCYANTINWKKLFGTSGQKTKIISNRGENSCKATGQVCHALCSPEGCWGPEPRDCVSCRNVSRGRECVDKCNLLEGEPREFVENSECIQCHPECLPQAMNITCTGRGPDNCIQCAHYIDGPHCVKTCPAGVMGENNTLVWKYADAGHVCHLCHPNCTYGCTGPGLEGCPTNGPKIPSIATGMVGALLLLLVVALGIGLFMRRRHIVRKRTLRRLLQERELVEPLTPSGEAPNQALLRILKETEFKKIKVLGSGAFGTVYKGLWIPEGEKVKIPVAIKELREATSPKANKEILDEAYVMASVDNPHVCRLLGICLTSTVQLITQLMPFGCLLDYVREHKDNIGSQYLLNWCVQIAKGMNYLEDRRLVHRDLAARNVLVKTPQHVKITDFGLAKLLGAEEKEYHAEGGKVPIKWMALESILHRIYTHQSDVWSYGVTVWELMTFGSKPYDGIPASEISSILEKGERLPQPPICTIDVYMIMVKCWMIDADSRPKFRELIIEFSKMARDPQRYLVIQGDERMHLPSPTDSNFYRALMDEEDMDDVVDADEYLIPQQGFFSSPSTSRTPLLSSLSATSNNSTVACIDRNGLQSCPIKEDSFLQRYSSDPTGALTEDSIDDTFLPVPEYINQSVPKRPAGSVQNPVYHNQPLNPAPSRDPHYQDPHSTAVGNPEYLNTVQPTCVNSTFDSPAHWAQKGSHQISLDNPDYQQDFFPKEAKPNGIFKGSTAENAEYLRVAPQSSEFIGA

For the molecule `Cc1cc2cc(n1)-c1cnn(C)c1OCCC[C@@H](C1CC1)CN1/C(=N/C2=O)Nc2cc(NC(C)CN(C)C)ccc21` (stereo partly drawn) [US20250034165, Example 62], the IC50 in assay [1] is 0.031 nM; in assay [2], 0.016 nM; in assay [3], 0.77 nM.
The like results for `Cc1cc2cc(n1)-c1cnn(C)c1OCCC[C@@H](C1CC1)CN1/C(=N/C2=O)Nc2cc(NC3CCC3)ccc21` [US20250034165, Example 79] were, in that order, 0.007 nM, 0.123 nM and 6.2 nM.
Taken in the same sequence, the figures for `Cc1cc2cc(n1)-c1cnn(C)c1OCCC[C@@H](C1CC1)CN1/C(=N/C2=O)Nc2cc(NCCCN(C)C)ccc21` [US20250034165, Example 44] were 0.01 nM, 0.007 nM and 0.36 nM.
For the molecule `Cc1cc2cc(n1)-c1cnn(C)c1OCCC[C@@H](C1CC1)CN1/C(=N/C2=O)Nc2ccc(NC3CCN(C(C)C)CC3)cc21` [US20250034165, Example 54], the IC50 was 0.017 nM in assay [1], 0.025 nM in assay [2] and 0.39 nM in assay [3].
The like results for `Cc1cc2cc(n1)-c1cnn(C)c1OCCC[C@@H](C1CC1)CN1/C(=N/C2=O)Nc2cc(NCC3CCOCC3)ccc21` [US20250034165, Example 22] were, in that order, 0.04 nM, 0.052 nM and 2 nM.
Taken in the same sequence, the figures for `Cc1cc2cc(n1)-c1cnn(C)c1OCCC[C@@H](C1CC1)CN1/C(=N/C2=O)Nc2ccc(NCCCN3CCOCC3)cc21` [US20250034165, Example 81] were 0.044 nM, 0.027 nM and 0.68 nM.
The like results for `Cc1cc2cc(n1)-c1cnn(C)c1OCCC[C@@H](C1CC1)CN1/C(=N/C2=O)Nc2cc(NCCCN3CCCC3)ccc21` [US20250034165, Example 70] were, in that order, 0.015 nM, 0.029 nM and 0.99 nM.
Take `Cc1cc2cc(n1)-c1cnn(C3CC3)c1OCCC[C@@H](C)CN1/C(=N/C2=O)Nc2cc(NC3CCN(C)CC3)ccc21` [US20250034165, Example 12]: the figures for the IC50 in assay [1], in assay [2] and in assay [3] were 0.19 nM, 0.2 nM and 2.6 nM, respectively.
As for `Cc1cc2cc(n1)-c1cnn(C)c1OCCC[C@@H](C1CC1)CN1/C(=N/C2=O)Nc2cc(NCC3COC3)ccc21` [US20250034165, Example 36], the IC50 in assay [1] is 0.033 nM; in assay [2], 0.035 nM; in assay [3], 1.5 nM.
Taken in the same sequence, the figures for `Cc1cc2cc(n1)-c1cnn(C3CC3)c1OCCC[C@@H](C)CN1/C(=N/C2=O)Nc2ccc(NCCN(C)C)cc21` [US20250034165, Example 17] were 0.011 nM, 0.008 nM and 0.7 nM.
Taken in the same sequence, the figures for `Cc1cc2cc(n1)-c1cnn(C)c1OCCC[C@@H](C1CC1)CN1/C(=N/C2=O)Nc2ccc(NC3CCCC3)cc21` [US20250034165, Example 87] were 0.042 nM, 0.226 nM and 13 nM.
`Cc1cc2cc(n1)-c1cnn(C)c1OCCC[C@@H](C1CC1)CN1/C(=N/C2=O)Nc2ccc(NC(C)CN(C)C)cc21` (stereo partly drawn) [US20250034165, Example 63]: the figures for the IC50 in assay [1] and in assay [3] were 0.009 nM and 0.33 nM, respectively.
With `Cc1cc2cc(n1)-c1cnn(C)c1OCCC[C@@H](C1CC1)CN1/C(=N/C2=O)Nc2cc(NC(C)C3COC3)ccc21` (stereo partly drawn) [US20250034165, Example 37], the IC50 in assay [1] was 0.027 nM; in assay [2], 0.037 nM; in assay [3] it was 1.4 nM.
Take `Cc1cc2cc(n1)-c1cnn(C)c1OCCC[C@@H](C1CC1)CN1/C(=N/C2=O)Nc2ccc(NCCCN(C)C)cc21` [US20250034165, Example 27]: the IC50 in assay [1] was found to be 0.03 nM; in assay [2], 0.033 nM; in assay [3] it was 0.78 nM.
Regarding `Cc1cc2cc(n1)-c1cnn(C)c1OCCC[C@@H](C1CC1)CN1/C(=N/C2=O)Nc2cc(NC3CNC3)ccc21` [US20250034165, Example 32], the 50% inhibitory concentration (IC50) in assay [1] amounted to 0.018 nM; in assay [2] it was 0.029 nM; in assay [3], 0.34 nM.
Consider `Cc1cc2cc(n1)-c1cnn(C)c1OCCC[C@@H](C1CC1)CN1/C(=N/C2=O)Nc2cc(NC3COC3(C)C)ccc21` (stereo partly drawn) [US20250034165, Example 30], for which the IC50 in assay [1] turned out to be 0.13 nM; in assay [2], 0.12 nM; in assay [3], 2.8 nM.
The like results for `Cc1cc2cc(n1)-c1cnn(C)c1OCCC[C@@H](C1CC1)CN1/C(=N/C2=O)Nc2cc(NCCN3CCCC3)ccc21` [US20250034165, Example 72] were, in that order, 0.038 nM, 0.021 nM and 0.93 nM.
Taken in the same sequence, the figures for `Cc1cc2cc(n1)-c1cnn(C)c1OCCC[C@@H](C1CC1)CN1/C(=N/C2=O)Nc2ccc(OCCN(C)C)cc21` [US20250034165, Example 11] were 0.044 nM, 0.055 nM and 1.9 nM.
`Cc1cc2cc(n1)-c1cnn(C)c1OCCC[C@@H](C1CC1)CN1/C(=N/C2=O)Nc2ccc(NCCCN3CCCCC3)cc21` [US20250034165, Example 80]: the figures for the IC50 in assay [1], in assay [2] and in assay [3] were 0.031 nM, 0.019 nM and 0.56 nM, respectively.
`Cc1cc2cc(n1)-c1cnn(C)c1OCCC[C@@H](C1CC1)CN1/C(=N/C2=O)Nc2ccc(NCCN)cc21` [US20250034165, Example 58]: the IC50 in assay [1] was found to be 0.012 nM; in assay [3], 0.51 nM.
For the molecule `CCN1CCC(Nc2ccc3c(c2)N2C[C@H](C4CC4)CCCOc4c(cnn4C)-c4cc(cc(C)n4)C(=O)/N=C/2N3)CC1` [US20250034165, Example 55], the IC50 in assay [1] stood at 0.017 nM; in assay [2], 0.022 nM; in assay [3], 0.5 nM.
In the case of `Cc1cc2cc(n1)-c1cnn(C3CC3)c1OCCC[C@@H](C)CN1/C(=N/C2=O)Nc2cc(NCCN3CCOCC3)ccc21` [US20250034165, Example 5], the half-maximal inhibitory concentration (IC50) in assay [1] amounted to 0.091 nM; in assay [3], 3.1 nM.
On to `Cc1cc2cc(n1)-c1cnn(C)c1OCCC[C@@H](C1CC1)CN1/C(=N/C2=O)Nc2cc(NC3(C)COC3)ccc21` [US20250034165, Example 29], for which the IC50 in assay [1] is 0.019 nM; in assay [2], 0.021 nM; in assay [3], 1.4 nM.
Take `Cc1cc2cc(n1)-c1cnn(C)c1OCCC[C@@H](C1CC1)CN1/C(=N/C2=O)Nc2ccc(NCCN3CCCCC3)cc21` [US20250034165, Example 83]: the IC50 came to 0.04 nM in assay [1], 0.023 nM in assay [2] and 0.79 nM in assay [3].
As to `Cc1cc2cc(n1)-c1cnn(C)c1OCCC[C@@H](C1CC1)CN1/C(=N/C2=O)Nc2cc(NC3CCN(C(C)C)CC3)ccc21` [US20250034165, Example 47], the values for the IC50 in assay [1] and in assay [3] were 0.023 nM and 0.55 nM, respectively.
The like results for `Cc1cc2cc(n1)-c1cnn(C)c1OCCC[C@@H](C1CC1)CN1/C(=N/C2=O)Nc2ccc(NCCCN3CCCC3)cc21` [US20250034165, Example 84] were, in that order, 0.1 nM and 1.2 nM.

For the origin of these results see BindingDB's records for patent US20250034165 (Chia Tai Tianqing Pharmaceutical Group, 2025).
